In paper PMC10053807, “Natural Lipid Extracts as an Artificial Membrane for Drug Permeability Assay: In Vitro and In Silico Characterization” (Pharmaceutics, 2023):

experiment: PAMPA permeability, liver polar lipid extract (LPLE) membrane; settings: bovine, PAMPA, pH 7.4, Mean Pe, n=3, * = not detected at acceptor side, value calculated from limit of detection

Row | Papp at 4 h, 100 μM [×10⁻⁶ cm/s] | SMILES
1 | 57 | O=C1CC2(CCCC2)CC(=O)N1CCCCN1CCN(c2ncccn2)CC1 [buspirone]
2 | 39.9 | CCCCOc1cc(C(=O)NCCN(CC)CC)c2ccccc2n1 [dibucaine]
3 | 29.4 | CC(C)C(=O)Nc1ccc([N+](=O)[O-])c(C(F)(F)F)c1 [flutamide]
4 | 25.1 | CC(C)Cc1ccc(C(C)C(=O)O)cc1 (centres unmarked) [ibuprofen]

same assay, conditions: n=3

Row | Mean logPe | SMILES
5 | -4.40 | CCCCOc1cc(C(=O)NCCN(CC)CC)c2ccccc2n1 [dibucaine]
6 | -4.54 | CC(C)C(=O)Nc1ccc([N+](=O)[O-])c(C(F)(F)F)c1 [flutamide]
7 | -4.61 | CC(C)Cc1ccc(C(C)C(=O)O)cc1 (centres unmarked) [ibuprofen]

experiment: PAMPA permeability, comparison across the six natural lipid extract membranes; settings: BTLE vs BPLE

Row | total-polar permeability comparison, brain extracts | SMILES
8 | higher in the brain polar extract | CC(C)C(=O)Nc1ccc([N+](=O)[O-])c(C(F)(F)F)c1 [flutamide]

same assay, conditions: LTLE vs LPLE

Row | total-polar permeability comparison, liver extracts | SMILES
9 | higher in the liver total extract | CC(C)C(=O)Nc1ccc([N+](=O)[O-])c(C(F)(F)F)c1 [flutamide]

same assay, conditions: compounds near the abscissa of the PCA biplot, Figure 12

Row | dependence of permeability on the lipid extract (PCA biplot) | SMILES
10 | independent of the investigated lipids | CC(C)Cc1ccc(C(C)C(=O)O)cc1 (centres unmarked) [ibuprofen]

same assay, conditions: heart, liver and brain extracts, Figure 10A–C

Row | total-polar permeability comparison | SMILES
11 | higher permeability in polar lipids | O=C1CC2(CCCC2)CC(=O)N1CCCCN1CCN(c2ncccn2)CC1 [buspirone]
12 | higher permeability in polar lipids | CCCCOc1cc(C(=O)NCCN(CC)CC)c2ccccc2n1 [dibucaine]

experiment: PAMPA permeability, heart polar lipid extract (HPLE) membrane; settings: Heart Polar lipid extract membrane, n=3

Row | Mean logPe | SMILES
13 | -4.31 | CCCCOc1cc(C(=O)NCCN(CC)CC)c2ccccc2n1 [dibucaine]
14 | -4.30 | CC(C)C(=O)Nc1ccc([N+](=O)[O-])c(C(F)(F)F)c1 [flutamide]
15 | -4.62 | CC(C)Cc1ccc(C(C)C(=O)O)cc1 (centres unmarked) [ibuprofen]

same assay, conditions: bovine, PAMPA, pH 7.4

Row | Papp at 4 h, 100 μM [×10⁻⁶ cm/s] | SMILES
16 | 48.6 | CCCCOc1cc(C(=O)NCCN(CC)CC)c2ccccc2n1 [dibucaine]
17 | 50.3 | CC(C)C(=O)Nc1ccc([N+](=O)[O-])c(C(F)(F)F)c1 [flutamide]
18 | 24.2 | CC(C)Cc1ccc(C(C)C(=O)O)cc1 (centres unmarked) [ibuprofen]

experiment: PAMPA permeability, liver total lipid extract (LTLE) membrane; settings: Liver total lipid extract membrane, n=3

Row | Mean logPe | SMILES
19 | -4.56 | CCCCOc1cc(C(=O)NCCN(CC)CC)c2ccccc2n1 [dibucaine]
20 | -4.32 | CC(C)C(=O)Nc1ccc([N+](=O)[O-])c(C(F)(F)F)c1 [flutamide]
21 | -4.54 | CC(C)Cc1ccc(C(C)C(=O)O)cc1 (centres unmarked) [ibuprofen]

same assay, conditions: bovine, PAMPA, pH 7.4

Row | Papp at 4 h, 100 μM [×10⁻⁶ cm/s] | SMILES
22 | 28.6 | CCCCOc1cc(C(=O)NCCN(CC)CC)c2ccccc2n1 [dibucaine]
23 | 47.9 | CC(C)C(=O)Nc1ccc([N+](=O)[O-])c(C(F)(F)F)c1 [flutamide]
24 | 29 | CC(C)Cc1ccc(C(C)C(=O)O)cc1 (centres unmarked) [ibuprofen]

experiment: PAMPA permeability, brain total lipid extract (BTLE) membrane; settings: Brain total lipid extract membrane, n=3

Row | Mean logPe | SMILES
25 | -4.40 | CCCCOc1cc(C(=O)NCCN(CC)CC)c2ccccc2n1 [dibucaine]
26 | -4.45 | CC(C)C(=O)Nc1ccc([N+](=O)[O-])c(C(F)(F)F)c1 [flutamide]
27 | -5.05 | CC(C)Cc1ccc(C(C)C(=O)O)cc1 (centres unmarked) [ibuprofen]

same assay, conditions: Brain total lipid extract membrane, n=3; * = not detected at acceptor side, value calculated from limit of detection

Row | Mean Pe | SMILES
28 | 40.24 10-6 cm/s | CCCCOc1cc(C(=O)NCCN(CC)CC)c2ccccc2n1 [dibucaine]

same assay, conditions: pig, PAMPA, pH 7.4

Row | Papp at 4 h, 100 μM [×10⁻⁶ cm/s] | SMILES
29 | 35.5 | CC(C)C(=O)Nc1ccc([N+](=O)[O-])c(C(F)(F)F)c1 [flutamide]
30 | 8.97 | CC(C)Cc1ccc(C(C)C(=O)O)cc1 (centres unmarked) [ibuprofen]

experiment: PAMPA permeability, brain polar lipid extract (BPLE) membrane; settings: Brain Polar lipid extract membrane, n=3

Row | Mean logPe | SMILES
31 | -4.19 | CCCCOc1cc(C(=O)NCCN(CC)CC)c2ccccc2n1 [dibucaine]
32 | -4.24 | CC(C)C(=O)Nc1ccc([N+](=O)[O-])c(C(F)(F)F)c1 [flutamide]
33 | -5.12 | CC(C)Cc1ccc(C(C)C(=O)O)cc1 (centres unmarked) [ibuprofen]

same assay, conditions: pig, PAMPA, pH 7.4

Row | Papp at 4 h, 100 μM [×10⁻⁶ cm/s] | SMILES
34 | 65 | CCCCOc1cc(C(=O)NCCN(CC)CC)c2ccccc2n1 [dibucaine]
35 | 58.1 | CC(C)C(=O)Nc1ccc([N+](=O)[O-])c(C(F)(F)F)c1 [flutamide]
36 | 7.64 | CC(C)Cc1ccc(C(C)C(=O)O)cc1 (centres unmarked) [ibuprofen]

experiment: PAMPA permeability, heart total lipid extract (HTLE) membrane; settings: Heart total lipid extract membrane, n=3

Row | Mean logPe | SMILES
37 | -4.44 | CCCCOc1cc(C(=O)NCCN(CC)CC)c2ccccc2n1 [dibucaine]
38 | -4.40 | CC(C)C(=O)Nc1ccc([N+](=O)[O-])c(C(F)(F)F)c1 [flutamide]
39 | -4.76 | CC(C)Cc1ccc(C(C)C(=O)O)cc1 (centres unmarked) [ibuprofen]

same assay, conditions: bovine, PAMPA, pH 7.4, Mean Pe, Heart total lipid extract membrane, n=3; * = not detected at acceptor side, value calculated from limit of detection

Row | Papp at 4 h, 100 μM [×10⁻⁶ cm/s] | SMILES
40 | 37.3 | CCCCOc1cc(C(=O)NCCN(CC)CC)c2ccccc2n1 [dibucaine]
41 | 41.8 | CC(C)C(=O)Nc1ccc([N+](=O)[O-])c(C(F)(F)F)c1 [flutamide]
42 | 17.3 | CC(C)Cc1ccc(C(C)C(=O)O)cc1 (centres unmarked) [ibuprofen]

same assay, conditions: pH 7.4, 4 h, 37 °C; in words (PCA biplot, Figure 11B)

Row | PAMPA permeability on HTLE | SMILES
43 | high permeability | CCCCOc1cc(C(=O)NCCN(CC)CC)c2ccccc2n1 [dibucaine]
44 | high permeability | CC(C)C(=O)Nc1ccc([N+](=O)[O-])c(C(F)(F)F)c1 [flutamide]
